Reference: patent US20240150368A1, “ULK INHIBITORS AND METHODS OF USE THEREOF” (Deciphera Pharmaceuticals, LLC, priority 2022, published 2024)

Tests used:
[1] = target: T1, ULK1 kinase (Homo sapiens, UniProt O75385, E37A/K38A); experiment: Biochemical assay for ULK1 (coupled pyruvate kinase/lactate dehydrogenase assay); settings: 1 mM ATP, 0.1 nM ULK1; read-out: ULK1 (inhibition of biochemical activity), IC50
T1 construct: (residues 1-283; ID NO: 1); purchased Beryllium
T1 sequence (O75385 1-283 E37A/K38A): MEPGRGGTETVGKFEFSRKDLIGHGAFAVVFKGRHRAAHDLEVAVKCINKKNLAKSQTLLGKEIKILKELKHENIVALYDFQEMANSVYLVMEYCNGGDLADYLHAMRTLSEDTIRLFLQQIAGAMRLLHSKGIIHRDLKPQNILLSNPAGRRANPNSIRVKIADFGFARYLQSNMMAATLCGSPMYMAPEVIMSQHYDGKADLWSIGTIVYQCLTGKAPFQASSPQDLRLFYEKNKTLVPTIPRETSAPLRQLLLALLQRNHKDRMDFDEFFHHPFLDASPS
Protocol: Biochemical Assay for ULK1 (SEQ. ID NO: 1)
Activity of ULK1 kinase was determined spectroscopically using a coupled pyruvate kinase/lactate dehydrogenase assay that continuously monitors the ATP hydrolysis-dependent oxidation of NADH (e.g., Schindler et al. Science (2000) 289: 1938-1942). Assays were conducted in 384-well plates (100 μL final volume) using 0.1 nM ULK1 (from Beryllium), 0.075 mM peptide substrate (YANWLAASIYLDGKKK), 1.5 units pyruvate kinase, 2.1 units lactate dehydrogenase, 1 mM phosphoenol pyruvate, 0.28 mM NADH and 1 mM ATP in assay buffer (100 mM Tris, pH 7.5, 15 mM MgCl2, 0.5 mM DTT, 0.004% (w/v) BSA, and 0.004% Triton X-100). Inhibition of ULK1 was measured by adding serial diluted test compound (final assay concentration of 1% DMSO). A decrease in absorption at 340 nm was monitored continuously for 6 h at 30° C. on a multi-mode microplate reader (BioTek). The reaction rate was calculated using the 2-3 h time frame. The reaction rate at each concentration of compound was converted to percent inhibition using controls (i.e., reaction with no test compound and reaction with a known inhibitor) and IC50 values were calculated using software routines in Prism (GraphPad software).

[2] = system: ULK kinase substrate ATG13 (pS318-ATG13) in MiaPaCa-2 cells; experiment: pATG13 levels of mutant KRas MiaPaCa-2 cells after treatment with ULK inhibitors in combination with trametinib (ELISA); type: cell-based, human
Protocol: pATG13 Levels of Mutant KRas MiaPaCa-2 Cells after Treatment with ULK Inhibitors in Combination with Trametinib
(§1) MiaPaCa-2 human pancreatic cancer cells (10000 cells/well) were added to a 384-well tissue-culture treated plate in 50 μL of pre-warmed DMEM medium supplemented with 10% characterized fetal bovine serum (Invitrogen, Carlsbad, CA), 100 units/mL penicillin G, 100 μg/mL streptomycin, and 2.5% Horse Serum and allowed to grow overnight at 37° C., 5% CO2, and 95% humidity. The following day, 10 μL of media containing trametinib or DMSO as a control was added to wells. The final concentration of trametinib in wells was 250 nM. A dose response of a test compound (0.6 μL per well) was added. DMSO (0.6 μL) was added to control wells. The plate was briefly shaken to mix wells and then incubated at 37° C. overnight. The next day, the media was aspirated and cells were washed with Dulbecco's Phosphate Buffered Saline (Gibco). Cells were lysed using MPER lysis buffer (Pierce, Rockford, IL) containing Halt Phosphatase and Protease Inhibitors (Pierce, Rockford, IL) and Phosphatase inhibitor cocktail 2 (Sigma, St. Louis, MO) at 4° C. for 10 minutes with shaking.
(§2) Cellular levels of phospho-Serine 318 ATG13 (pATG13) were measured via an ELISA method. Total ATG13 Antibody (Cell Signaling Cat #13273) was used to coat the wells. The plate was incubated at 4° C. overnight and washed with ELISA wash buffer (Biolegend Cat #421601). The wells were then blocked with assay diluent (Biolegend Cat #421203) for 1 h at rt. Plate wells were washed with ELISA wash buffer. Cell lysate was added to wells and incubated at rt for 2 h. Plate wells were washed with ELISA wash buffer. Biotinylated pS318-ATG13 antibody (Rockland Immunochemicals Cat #600-401-C49) was diluted in assay diluent and added to each well and incubated at rt for 1 h. Plate wells were washed with ELISA wash buffer. Streptavidin linked to horseradish peroxidase (Thermo Fisher Cat #21140) was diluted in assay diluent and added to each well and incubated at rt for 1 h. Plate wells were washed with ELISA wash buffer. High sensitivity TMB substrate (Biolegend Cat #421101) was added to each well and incubated at rt for 20 min. The reaction was stopped with 2.0N sulfuric acid. The plate was analyzed at on a plate reader measuring absorbance at 450 nm and 540 nm (background). Signal was calculated by first subtracting the background absorbance at 540 nm from the absorbance at 450 nm for each well. Next, the background corrected absorbance at 450 nm from blank wells was subtracted from test wells. Data was compared to control wells to determine % ATG13 phosphorylation. GraphPad Prism was used to calculate IC50 values.

[3] = system: ULK kinase substrate ATG13 (pS318-ATG13) in A549 (KRAS mutant) cells; experiment: pATG13 levels of mutant KRas A549 cells after treatment with ULK inhibitors in combination with trametinib (ELISA); type: cell-based, human
Protocol: Cellular Inhibition of ULK Kinase Substrate ATG13 Protein pATG13 Levels of Mutant KRas A549 Cells after Treatment with ULK Inhibitors in Combination with Trametinib
as §1, with “A549 (KRAS mutant)” for “MiaPaCa-2”, “lung” for “pancreatic”, “(6,000” for “(10000”, “G, and” for “G,”, “streptomycin” for “streptomycin, and 2.5% Horse Serum”, “min” for “minutes”
as §2, with “2N Sulfuric Acid.” for “2.0N sulfuric acid.”

[4] = target: T2, ULK2 kinase (Homo sapiens, UniProt Q8IYT8); experiment: Biochemical assay for ULK2 (coupled pyruvate kinase/lactate dehydrogenase assay); settings: 1 mM ATP, 1 nM ULK2; read-out: ULK2 (inhibition of biochemical activity), IC50
T2 construct: (residues 1-306 with N-terminal GST and His tag; ID NO: 2); purchased Signal Chem U02-11G
Protocol: Biochemical Assay for ULK2 (SEQ. ID NO: 2)
Activity of ULK2 kinase was determined spectroscopically using a coupled pyruvate kinase/lactate dehydrogenase assay that continuously monitors the ATP hydrolysis-dependent oxidation of NADH (e.g., Schindler et al. Science (2000) 289: 1938-1942). Assays were conducted in 384-well plates (100 μL final volume) using 1 nM ULK2 (Signal Chem U02-11G), 200 μM ULKtide, 1.5 units pyruvate kinase, 2.1 units lactate dehydrogenase, 1 mM phosphoenol pyruvate, 0.28 mM NADH and 1 mM ATP in assay buffer (100 mM Tris, pH 7.5, 15 mM MgCl2, 0.5 mM DTT, 0.1% octyl-glucoside, 0.002% (w/v) BSA, and 0.002% Triton X-100). Inhibition of ULK2 was measured by adding serial diluted test compound (final assay concentration of 1% DMSO). A decrease in absorption at 340 nm was monitored continuously for 6 h at 30° C. on a multi-mode microplate reader (BioTek). The reaction rate was calculated using the 2-3 h time frame. The reaction rate at each concentration of compound was converted to percent inhibition using controls (i.e., reaction with no test compound and reaction with a known inhibitor) and IC50 values were calculated by fitting a four-parameter sigmoidal curve to the data using Prism (GraphPad software).

[5] = target: T3, LRRK2 kinase (Homo sapiens, UniProt Q5S007); experiment: Biochemical assay for LRRK2 (coupled pyruvate kinase/lactate dehydrogenase assay); settings: 26.4 nM LRRK2, 1 mM ATP; read-out: LRRK2 (inhibition of LRRK2 kinase activity, IC50)
T3 construct: (residues 970-2528; ID NO; 3); purchased Thermo Fisher
Protocol: Biochemical Assay for LRRK2 (SEQ. ID NO. 3)
Activity of LRRK2 kinase was determined spectroscopically using a coupled pyruvate kinase/lactate dehydrogenase assay that continuously monitors the ATP hydrolysis-dependent oxidation of NADH (e.g., Schindler et al. Science (2000) 289: 1938-1942). Assays were conducted in 384-well plates (100 μL final volume) using 26.4 nM LRRK2 (Thermo Fisher), 0.1 mM peptide substrate (RLGRDKYKTLRQIRQ), 1.5 units pyruvate kinase, 2.1 units lactate dehydrogenase, 1 mM phosphoenol pyruvate, 0.28 mM NADH and 1 mM ATP in assay buffer (100 mM Tris, pH 7.5, 15 mM MgCl2, 0.5 mM DTT, 0.004% (w/v) BSA, and 0.004% Triton X-100). Inhibition of LRRK2 was measured by adding serial diluted test compound (final assay concentration of 1% DMSO). A decrease in absorption at 340 nm was monitored continuously for 6 h at 30° C. on a multi-mode microplate reader (BioTek). The reaction rate was calculated using the 2-3 h time frame. The reaction rate at each concentration of compound was converted to percent inhibition using controls (i.e., reaction with no test compound and reaction with a known inhibitor) and IC50 values were calculated using software routines in Prism (GraphPad software).

T3 sequence (Q5S007 with tags, fused parts or gaps): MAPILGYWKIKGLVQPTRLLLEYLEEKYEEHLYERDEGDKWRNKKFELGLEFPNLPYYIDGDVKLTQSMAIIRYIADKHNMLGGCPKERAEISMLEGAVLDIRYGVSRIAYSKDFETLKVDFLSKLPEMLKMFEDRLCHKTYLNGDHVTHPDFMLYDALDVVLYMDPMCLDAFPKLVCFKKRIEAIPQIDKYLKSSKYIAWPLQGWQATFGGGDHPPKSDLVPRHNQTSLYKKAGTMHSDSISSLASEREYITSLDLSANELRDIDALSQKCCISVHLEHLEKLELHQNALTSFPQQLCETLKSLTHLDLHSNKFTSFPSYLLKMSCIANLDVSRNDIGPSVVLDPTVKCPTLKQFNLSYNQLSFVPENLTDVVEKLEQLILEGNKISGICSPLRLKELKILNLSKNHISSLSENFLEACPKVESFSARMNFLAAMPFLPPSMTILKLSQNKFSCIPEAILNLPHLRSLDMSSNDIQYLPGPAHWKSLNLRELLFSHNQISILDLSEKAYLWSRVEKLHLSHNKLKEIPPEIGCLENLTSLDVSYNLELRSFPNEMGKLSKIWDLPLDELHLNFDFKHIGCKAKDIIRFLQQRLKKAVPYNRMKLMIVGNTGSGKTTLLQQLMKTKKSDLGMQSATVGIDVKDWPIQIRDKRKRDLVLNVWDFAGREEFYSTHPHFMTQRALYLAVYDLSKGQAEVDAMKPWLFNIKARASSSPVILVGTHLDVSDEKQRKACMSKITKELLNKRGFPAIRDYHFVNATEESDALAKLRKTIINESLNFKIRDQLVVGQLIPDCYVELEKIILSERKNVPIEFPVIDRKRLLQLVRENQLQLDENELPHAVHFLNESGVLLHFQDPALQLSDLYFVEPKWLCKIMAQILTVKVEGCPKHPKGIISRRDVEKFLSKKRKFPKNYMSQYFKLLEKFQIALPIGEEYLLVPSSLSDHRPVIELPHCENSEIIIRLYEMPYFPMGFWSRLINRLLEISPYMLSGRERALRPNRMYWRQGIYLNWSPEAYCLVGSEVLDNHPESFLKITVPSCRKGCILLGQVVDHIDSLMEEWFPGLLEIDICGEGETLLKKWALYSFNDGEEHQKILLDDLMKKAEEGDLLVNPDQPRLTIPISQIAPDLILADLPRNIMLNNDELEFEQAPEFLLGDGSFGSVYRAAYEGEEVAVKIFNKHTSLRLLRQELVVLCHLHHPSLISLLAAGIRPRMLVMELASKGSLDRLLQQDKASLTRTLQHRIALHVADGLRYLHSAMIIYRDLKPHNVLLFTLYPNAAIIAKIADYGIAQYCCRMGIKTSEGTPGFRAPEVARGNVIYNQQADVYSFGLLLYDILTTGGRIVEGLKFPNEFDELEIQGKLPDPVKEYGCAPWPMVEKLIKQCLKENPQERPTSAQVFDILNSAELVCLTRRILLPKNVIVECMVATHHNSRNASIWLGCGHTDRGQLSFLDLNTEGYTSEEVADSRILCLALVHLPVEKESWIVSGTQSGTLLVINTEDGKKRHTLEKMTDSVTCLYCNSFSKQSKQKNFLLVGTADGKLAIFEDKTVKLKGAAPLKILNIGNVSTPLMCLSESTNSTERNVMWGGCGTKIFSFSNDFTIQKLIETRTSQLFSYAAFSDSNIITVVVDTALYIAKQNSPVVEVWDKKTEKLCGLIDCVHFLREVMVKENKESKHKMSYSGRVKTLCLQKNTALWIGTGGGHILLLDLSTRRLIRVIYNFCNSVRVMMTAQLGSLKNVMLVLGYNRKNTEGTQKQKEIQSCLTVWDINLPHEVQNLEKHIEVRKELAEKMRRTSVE
T2 sequence (Q8IYT8 with tags, fused parts or gaps): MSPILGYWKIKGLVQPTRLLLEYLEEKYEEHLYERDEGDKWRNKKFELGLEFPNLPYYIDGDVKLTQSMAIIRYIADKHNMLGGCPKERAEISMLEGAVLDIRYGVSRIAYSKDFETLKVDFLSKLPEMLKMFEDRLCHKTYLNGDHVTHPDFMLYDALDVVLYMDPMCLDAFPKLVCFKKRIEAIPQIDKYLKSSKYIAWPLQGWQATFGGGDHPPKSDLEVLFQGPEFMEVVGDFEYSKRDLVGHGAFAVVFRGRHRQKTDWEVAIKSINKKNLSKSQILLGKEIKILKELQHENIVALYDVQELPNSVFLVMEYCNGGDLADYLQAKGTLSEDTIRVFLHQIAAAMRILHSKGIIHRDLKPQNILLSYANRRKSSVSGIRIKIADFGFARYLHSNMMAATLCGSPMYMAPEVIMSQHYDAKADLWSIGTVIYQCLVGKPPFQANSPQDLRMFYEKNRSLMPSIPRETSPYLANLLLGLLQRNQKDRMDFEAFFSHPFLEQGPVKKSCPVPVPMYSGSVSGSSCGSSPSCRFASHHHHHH

IC50 [1] | IC50 [2] | IC50 [3] | IC50 [4] | IC50 [5] | Compound
≤ 0.01 µM | ≤ 0.1 µM | ≤ 0.1 µM |  |  | CC/C(Nc1cnn(C2CCN(C(C)C)CC2)c1)=C1/C(=O)Nc2ccc(C(=O)NCC3CCC3)cc21 [Example 43]
0.01 to 0.1 µM | ≤ 0.1 µM | 0.1 to 0.3 µM |  |  | CC/C(Nc1cccc(N2CCN(C(C)C)CC2)c1)=C1/C(=O)Nc2ccc(C(=O)NC[C@H]3CCCO3)cc21 [Example 46]
0.1 to 0.5 µM |  | > 0.6 µM | 0.1 to 0.5 µM | ≤ 0.1 µM | CC/C(Nc1cnn(C(C)C)c1)=C1/C(=O)Nc2ccc(C(C)=O)cc21 [Example 177]
≤ 0.01 µM |  | ≤ 0.1 µM |  | ≤ 0.1 µM | CC/C(Nc1cnn(CC)c1)=C1/C(=O)Nc2ccc(C(=O)NCC3(C(F)(F)F)CC3)cc21 [Example 179]
≤ 0.01 µM |  | 0.1 to 0.3 µM |  | ≤ 0.1 µM | CC/C(Nc1cnn(C(F)F)c1)=C1/C(=O)Nc2ccc(C(=O)NCC3(C(F)(F)F)CC3)cc21 [Example 180]
≤ 0.01 µM |  | ≤ 0.1 µM |  | ≤ 0.1 µM | CC/C(Nc1cnn(CC(F)F)c1)=C1/C(=O)Nc2ccc(C(=O)NCC3(C(F)(F)F)CC3)cc21 [Example 181]
